Data reported in patent publication US7592477B2, “Substituted methylene amide derivatives as modulators of protein tyrosine phosphatases (PTPs)” (Laboratoires Serono SA, priority 2002, dated 2009).

Experiments:
[1] = molecular target: T1, GLEPP-1 (Homo sapiens, UniProt Q16827); assay: PTP Enzyme Assay (DiFMUP), GLEPP-1; assay type: biochemical; conditions: 30 μM DiFMUP; read-out: IC50 value in respect of GLEPP-1
T1 construct: using the catalytic core of a human recombinant PTP as the enzyme
T1 sequence (Q16827 938-1195 limits assumed): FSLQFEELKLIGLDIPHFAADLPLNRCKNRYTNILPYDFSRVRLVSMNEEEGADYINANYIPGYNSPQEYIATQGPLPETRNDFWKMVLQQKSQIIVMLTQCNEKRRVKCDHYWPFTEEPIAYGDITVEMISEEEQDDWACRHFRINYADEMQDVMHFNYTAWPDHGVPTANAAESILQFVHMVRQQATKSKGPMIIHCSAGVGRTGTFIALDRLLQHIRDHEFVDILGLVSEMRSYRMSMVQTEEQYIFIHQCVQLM
Procedure: (§1) The PTP Enzyme Assay aims at determining the extent of inhibition of PTPs, e.g. of PTP1B, SHP-1, SHP-2 or GLEPP-1 in the presence of a test compound of formula (I). The inhibition is illustrated by IC50 values which denote the concentration of test compound necessary to achieve an inhibition of 50% of said PTP's using the following concentration of the PTP substrate DiFMUP: • 5 μM DiFMUP for PTP1B; • 20 […] DiFMUP for SHP-1 and SHP-2; • 30 μM DiFMUP for GLEPP-1. a) PTPs Cloning […]
(§2) Assays were performed in a 96 well plate format, using the catalytic core of a human recombinant PTP as the enzyme and 6,8-DiFluoro-4-MethylUmbelliferyl Phosphate (DiFMUP, Molecular Probes, D-6567) as a substrate. […] The reaction ran for 30 minutes at room temperature before reading the fluorescence intensity (integral or intensity) on a Perkin-Elmer Victor 2 spectrofluorimeter (excitation of 6,8-difluoro-7-hydroxy coumarin is at 355 nm, the emission at 460 nm, for 0.1 s). The percentage of inhibition is determined by measuring the relative fluorescence ion absence of a test compound (PTP inhibitor), i.e. with the solvent alone (5% DMSO). The IC50 values for inhibition were determined in triplicates.

[2] = molecular target: T2, SHP-1 (Homo sapiens, UniProt P29350); assay: PTP Enzyme Assay (DiFMUP), SHP-1; assay type: biochemical; conditions: 20 λM DiFMUP; read-out: IC50 value in respect of SHP-1
T2 construct: using the catalytic core of a human recombinant PTP as the enzyme
T2 sequence (P29350 244-515 limits assumed): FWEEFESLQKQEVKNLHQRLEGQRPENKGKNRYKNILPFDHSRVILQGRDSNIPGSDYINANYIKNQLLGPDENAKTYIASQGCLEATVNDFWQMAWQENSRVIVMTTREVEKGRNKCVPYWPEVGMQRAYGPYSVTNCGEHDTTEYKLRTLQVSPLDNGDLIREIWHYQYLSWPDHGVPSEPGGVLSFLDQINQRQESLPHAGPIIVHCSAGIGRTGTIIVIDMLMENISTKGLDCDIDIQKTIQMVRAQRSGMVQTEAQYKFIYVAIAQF
Procedure: as §1, §2

[3] = molecular target: T3, SHP-2 (Homo sapiens, UniProt Q06124); assay: PTP Enzyme Assay (DiFMUP), SHP-2; assay type: biochemical; conditions: 20 λM DiFMUP; read-out: IC50 value in respect of SHP-2
T3 construct: using the catalytic core of a human recombinant PTP as the enzyme
T3 sequence (Q06124 247-517 limits assumed): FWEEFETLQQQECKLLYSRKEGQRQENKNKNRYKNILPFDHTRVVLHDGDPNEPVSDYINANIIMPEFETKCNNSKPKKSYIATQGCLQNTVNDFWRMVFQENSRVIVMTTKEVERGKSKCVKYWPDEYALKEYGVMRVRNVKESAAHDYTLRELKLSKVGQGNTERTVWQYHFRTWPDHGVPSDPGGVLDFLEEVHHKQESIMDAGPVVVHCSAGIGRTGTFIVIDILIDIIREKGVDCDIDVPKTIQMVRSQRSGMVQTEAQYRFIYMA
Procedure: as §1, §2

[4] = molecular target: T4, PTP1B (Homo sapiens, UniProt P18031); assay: PTP Enzyme Assay (DiFMUP), PTP1B; assay type: biochemical; conditions: 5 μM DiFMUP; read-out: IC50 value in respect of PTP1B
T4 construct: The cloning and expression of the catalytic domain of PTPIB, may be performed as described in J. Biol. Chem. 2000; made in house
T4 sequence (P18031 3-277 limits assumed): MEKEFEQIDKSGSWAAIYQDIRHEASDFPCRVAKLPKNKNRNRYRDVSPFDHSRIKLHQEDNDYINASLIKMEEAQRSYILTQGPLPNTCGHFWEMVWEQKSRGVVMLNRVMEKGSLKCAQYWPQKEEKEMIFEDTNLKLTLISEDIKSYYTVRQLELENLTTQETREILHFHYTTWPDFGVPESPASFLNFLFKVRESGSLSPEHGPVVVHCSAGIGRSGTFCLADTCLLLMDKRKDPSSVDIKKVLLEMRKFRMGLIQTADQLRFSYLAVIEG
Procedure: The PTP Enzyme Assay aims at determining the extent of inhibition of PTPs, e.g. of PTP1B, SHP-1, SHP-2 or GLEPP-1 in the presence of a test compound of formula (I). The inhibition is illustrated by IC50 values which denote the concentration of test compound necessary to achieve an inhibition of 50% of said PTP's using the following concentration of the PTP substrate DiFMUP: • 5 μM DiFMUP for PTP1B; • 20 […] DiFMUP for SHP-1 and SHP-2; • 30 μM DiFMUP for GLEPP-1. a) PTPs Cloning
The cloning and expression of the catalytic domain of PTPIB, may be performed as described in J. Biol. Chem. 2000, 275(13), pp 9792-9796. […]
as §2

[5] = test system: db/db mice; assay: In vivo assay in db/db mice (postprandial glycemia); conditions: 4 hrs after drug administration
Procedure: The following assay aims at determining the anti-diabetic effect of the test compounds of formula (I) in a model of postprandial glycemia in db/db mice, in vivo.
A total of 24 db/db mice (about 8-9 weeks; obtained from IFFACREDO, l'Arbreste, France) were fasted during 20 hours.
4 groups, each consisting of 6 animals were formed:
Group 1: The animals were administered (per os) a dose of […] of vehicle.
Group 2: The animals were administered (per os) a dose of 20 mg/kg of the test compound according to formula (I).
Group 3: The animals were administered (per os) a dose of 100 mg/kg of the test compound according to formula (I).
Group 4: The animals were administered (per os) a dose of 200 mg/kg of the test compound according to formula (I).
After oral administration of the compounds of formula (I) solubilized or suspended in CarboxyMethylCellulose (0.5%), Tween 20 (0.25%) and water as vehicle, the animals had access to commercial food (D04, UAR, Villemoisson/Orge, France) ad libitum. The diabetic state of the mice was verified by determining the blood glucose level before drug administration. Blood glucose and serum insulin levels were then determined 4 hrs after drug administration.
The determination of the blood glucose level was performed using a glucometer (Precision Q.I.D., Medisense, Abbot, ref. 212.62.31).
The determination of the Insulin level was performed using an ELISA kit (Crystal CHEM, Ref. INSK R020).
Changes in blood glucose and serum insulin of drug treated mice were expressed as a percentage of control (group 1: vehicle treated mice).

[6] = Group 2: db/db mice, per os 20 mg/kg
[7] = Group 3: db/db mice, per os 100 mg/kg
[8] = Group 4: db/db mice, per os 200 mg/kg

Question: What does the source list for `CCCCCCCCCCCCCCCNC(=O)c1ccc(CN(Cc2ccc(C(F)(F)F)cc2)C(=O)C(=O)O)cc1` [Example 4, oxo{{4-[(pentadecylamino)carbonyl]benzyl}[4-(trifluoromethyl)benzyl]amino}acetic acid]?
Answer: IC50 [1]: 0.5 µM; IC50 [2]: 1 µM; IC50 [3]: 1.4 µM

Question: For `CCCCCCCCCCCCNC(=O)c1ccc(CN(Cc2ccc(C(F)(F)F)cc2)C(=O)C(=O)O)cc1` [Example 10, {{4-[(dodecylamino)carbonyl]benzyl}[4-(trifluoromethyl)benzyl]amino}(oxo)acetic acid], which IC50 [4] is on record?
Answer: 2.22 µM

Question: And the IC50 [1]?
Answer: 1.4 µM

Question: What about the IC50 [2] of the same compound?
Answer: 2.4 µM

Question: And the IC50 [3]?
Answer: 2.7 µM

Question: What about the “Decrease in blood glucose” value [5, 6] of the same compound?
Answer: 17 percentage of control

Question: What about the “Decrease in serum insulin” value [5, 6] of the same compound?
Answer: −2 percentage of control

Question: What about the “Decrease in blood glucose” value [5, 7] of the same compound?
Answer: 42 percentage of control

Question: And the “Decrease in serum insulin” value [5, 7]?
Answer: 66 percentage of control

Question: What about the “Decrease in blood glucose” value [5, 8] of the same compound?
Answer: 48 percentage of control

Question: What about the “Decrease in serum insulin” value [5, 8] of the same compound?
Answer: 89 percentage of control
